Experimental findings from BindingDB's records for doi:10.1021/jm200304y (Kyoto University, 2011) are described below.

A short description of the experiment: Inhibition of SREBP2 activation expressed in CHO-K1 cells co-transfected with pSRE-Luc plasmid assessed as inhibition of luciferase expression after 20 hrs by luciferase reporter gene assay. Background: Reporter assays use an easily measured gene product as a stand-in for the process of interest.
As usually defined, the IC50 is the concentration that gives 50% inhibition. Regarding `CCCc1cc(-c2nc(-c3cccc(O)c3)cs2)ccn1`, the IC50 came out at 9.5 µM.

On to `CCCc1cc(-c2nc(-c3cccc(OC)c3)cs2)ccn1`, for which the IC50 stood at 10.2 µM.

For the compound `CCCc1cc(-c2nc(-c3ccc(Br)cc3)cs2)ccn1`, the IC50 turned out to be 9.8 µM.

On to `CCCc1cc(-c2nc(-c3ccc(NC(C)C)cc3)cs2)ccn1`, for which the IC50 is 2.8 µM.

Turning to `C[C@H](CCCC(C)(C)O)[C@H]1CC[C@H]2[C@@H]3CC=C4C[C@@H](O)CC[C@]4(C)[C@H]3CC[C@]12C` [(1S,2R,5S,10S,11S,14R,15R)-14-[(2R)-6-hydroxy-6-methylheptan-2-yl]-2,15-dimethyltetracyclo[8.7.0.0^{2,7}.0^{11,15}]heptadec-7-en-5-ol], the IC50 was 0.3 µM.

With `CCCc1cc(-c2nc(-c3ccccc3O)cs2)ccn1`, the IC50 was determined as 14.4 µM.

On to `CCCc1cc(-c2nc(-c3ccc(F)cc3)cs2)ccn1`, for which the IC50 is 12.4 µM.

Take `CCCc1cc(-c2ccc(-c3ccc(C)cc3)cc2)ccn1`: the IC50 is > 30 µM.

Turning to `CCCc1cc(-c2nc(-c3ccc(Cl)cc3)cs2)ccn1` [SMR000177579], the IC50 was 10.7 µM.

Regarding `CCCc1cc(-c2nc(-c3ccccc3OC)cs2)ccn1`, the IC50 turned out to be 3.2 µM.

With `CCCc1cc(-c2nc(-c3ccc(NCC4CC4)cc3)cs2)ccn1`, the IC50 amounted to 4.9 µM.

Regarding `CCCc1cc(-c2nc(-c3ccc(NS(=O)(=O)c4cccs4)cc3)cs2)ccn1`, the IC50 was 0.9 µM.

In the case of `CCCc1cc(-c2nc(-c3ccc(NCc4ccccc4)cc3)cs2)ccn1`, the IC50 was found to be 3 µM.

As for `CCCc1cc(-c2nc(-c3ccc(OC(=O)c4ccccc4)cc3)cs2)ccn1`, the IC50 stood at 7.7 µM.

Regarding `CCc1cc(-c2nc(-c3ccc(C)cc3)cs2)ccn1`, the IC50 stood at 6.8 µM.

With `CCCc1cc(-c2nc(-c3ccc(NS(C)(=O)=O)cc3)cs2)ccn1`, the IC50 was found to be 0.7 µM.

As for `Cc1ccc(-c2csc(-c3ccccc3)n2)cc1`, the IC50 was determined as 18.6 µM.

On to `CCCc1cc(-c2nc(-c3ccc(NC(C)=O)cc3)cs2)ccn1`, for which the IC50 came to 7.1 µM.

Take `CCCc1cc(-c2nc(-c3ccc(OC)cc3)cs2)ccn1`: the IC50 was 13 µM.

As to `CCCc1cc(-c2nc(-c3cccs3)cs2)ccn1`, the IC50 stood at 14.7 µM.

Consider `CCCc1cc(-c2nc(-c3ccccc3)cs2)ccn1`, for which the IC50 was 23 µM.

On to `CCCc1cc(-c2nc(-c3ccc(NC(=O)OC(C)(C)C)cc3)cs2)ccn1`, for which the IC50 turned out to be 1.9 µM.

Regarding `CCCc1cc(-c2nc(-c3ccc(N)cc3)cs2)ccn1`, the IC50 was determined as 8.6 µM.

Consider `CCCc1cc(-c2nc(-c3ccc(C)cc3)cs2)ccn1` [SMR000221636], for which the IC50 came out at 5.6 µM.

`Cc1ccc(-c2csc(-c3ccncc3)n2)cc1`: the IC50 was > 30 µM.

For `CCCc1cc(-c2nc(-c3ccc(O)cc3)cs2)ccn1`, the IC50 came out at 9.6 µM.

For `CCCc1cc(-c2nc(-c3ccc(NS(=O)(=O)c4ccc(C)cc4)cc3)cs2)ccn1`, the IC50 was determined as 2.3 µM.
